Data published in patent publication US20150335565A1, “IRRITATION MITIGATING POLYMERS AND USES THEREFOR” (LUBRIZOL ADVANCED MATERIALS, INC., priority 2012, published 2015).
Where two headings read alike, the source gives them in different places.

How the values were obtained:
[1] = test system: Epiderm™ Human Tissue Model (EPI-200); experiment: MTT tissue viability assay (ET-50 protocol) for skin irritancy
Protocol: (§1) Mitigation of skin irritancy induced by sodium dodecyl sulfate (SDS) surfactant dosed with the polymer of Example 56 is assessed in the Epiderm™ Human Tissue Model (EPI-200) bioassay conducted by MatTek Corporation, Ashland, Mass. The MatTek bioassay utilizes human derived epidermal keratinocytes (NHEK) which have been cultured to form a multilayered, highly differentiated model of the human epidermis.
(§2) The MTT tissue viability assay measures the NAD(P)H dependent microsomal enzyme reduction of MTT (and to a lesser extent, the succinate dehydrogenase reduction of MTT) after exposure to a treated skin culture test sample for various exposure times. The duration of exposure resulting in a 50% decrease in MTT conversion in test formulation treated EpiDerm™ cultures, relative to control cultures, is determined (ET-50).
(§3) A SDS surfactant/polymer test formulation is formulated from the components set forth in Table 10 and evaluated for irritancy potential using the MTT viability assay. Test samples containing neat SDS surfactant (no polymer) are formulated for comparative purposes.
(§4) Skin tissue culture inserts (Cat. No. EPI-200) are pre-incubated in the wells of 6-well plates containing 0.9 ml of MatTek assay medium (Cat. No. EPI-100-ASY) for 1 hr. at 37° C. in a humidified atmosphere of 5% CO2 in air. The 6-well plates containing the tissue culture inserts are removed from the incubator and the assay media is aspirated from the wells and replaced by an additional aliquot of 0.9 ml of pre-warmed (37° C.) assay media. For each exposure time wells are then dosed (2 repetitions) with 100 μl of the test formulations set forth in Table 10 (3 tissue culture wells are dosed with 100 μl ultra-pure water as a negative control for each of the test candidates). In addition, 100 μl of a positive control formulation (1% Triton X-100 in ultrapure water) is dosed into tissue culture wells (3 repetitions for each exposure time), as well as 3 repetitions of ultrapure water as a negative control. The exposure times of the test formulations, negative control and positive control are set forth below.
(§5) MTT assay plates are prepped by preparing a 24-well plate by adding 300 μl of MTT reagent solution to an appropriate number of wells to accommodate the test. The MTT reagent is utilized at a concentration of 1 mg/ml of MTT diluted in Dulbecco's Modified Eagle Medium (DMEM). The MTT/DMEM solution is centrifuged and decanted to remove any precipitate before use.
(§6) After exposure times of 60 (1 hr.), 120 (2 hrs.) and 210 (3.5 hrs.) minutes to the test solutions, the tissue cultures are removed from the incubator and thoroughly rinsed (2 times) with Dulbecco's phosphate buffered saline (DPBS) to remove the test material. The negative control is exposed for 4 hours and the positive control is exposed for time periods of 4, 6, 8, and 10 hours. Any remaining rinse media is decanted from the top of the tissue cultures. Each tissue culture insert is transferred to an appropriately labeled well of the 24-well plate containing the MTT reagent solution and placed back in the incubator. After 30 minutes reaction with the MTT reagent, the tissue cultures are removed from the incubator. Each tissue culture insert is removed from its well and the bottom is gently blotted with a lab tissue. The inserts are immersed into a labeled 24-well extraction plate containing 2 ml of isopropanol extractant solution. […]

[2] = as above; details: human
Protocol: as §1, §2, §3, §4, §5, §6

| Molecule | ET-50 (exposure time which reduces tissue viability to 50%) [1] [h] | viability at 1 hr [2] [%] | viability at 2 hr [2] [%] | viability at 3.5 hr [2] [%] | ET-50 (exposure time which reduces tissue viability to 50%) ([1]; interpolated between exposure times that bracket 50% viability) [h] |
| --- | --- | --- | --- | --- | --- |
| Triton X-100 [1% Triton X-100] | 5.93 |  |  |  |  |
| CCCCCCCCCCCCOS(=O)(=O)[O-].[Na+] [Neat Surfactant, sodium dodecyl sulfate] |  | 72 | 28 | 19.6 | 1.41 |
